The text below walks through data of patent US11807693B2 (priority 2014, dated 2023).

Non-standard residues stand in square brackets, D forms with d. Residues, ends and D or L forms follow the SMILES beside them. No end group written: not given here. dBip = N[C@H](Cc1ccc(-c2ccccc2)cc1)C(=O)O; Oic = O=C(O)[C@@H]1C[C@@H]2CCCC[C@@H]2N1; Phe(4-Cl) = N[C@@H](Cc1ccc(Cl)cc1)C(=O)O; Phe(4-I) = N[C@@H](Cc1ccc(I)cc1)C(=O)O; hArg = N=C(N)NCCCC[C@H](N)C(=O)O; Cha = N[C@@H](CC1CCCCC1)C(=O)O; NMeL = CN[C@@H](CC(C)C)C(=O)O; Nle = CCCC[C@H](N)C(=O)O Some results are limits rather than exact numbers.

The nature of series [1]: In vitro stability in rat kidney homogenate. In kind it is in vitro ADME. Summed up:
(§1)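 Incubations: 5 μM apelin peptide, 37° C., 4 hr, in rat plasma, liver or kidney homogenate. Read-out via high resolution LC-MS after MeOH/internal standard precipitation and centrifugation.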

In series [2] the test system is Rat Peritoneal Mast Cells.
For a further series, the target named is T1, rat APJ receptor (Rattus norvegicus, UniProt Q9JHG3).
T1 construct: expressed in transfected cells
T1 sequence (Q9JHG3 1-377): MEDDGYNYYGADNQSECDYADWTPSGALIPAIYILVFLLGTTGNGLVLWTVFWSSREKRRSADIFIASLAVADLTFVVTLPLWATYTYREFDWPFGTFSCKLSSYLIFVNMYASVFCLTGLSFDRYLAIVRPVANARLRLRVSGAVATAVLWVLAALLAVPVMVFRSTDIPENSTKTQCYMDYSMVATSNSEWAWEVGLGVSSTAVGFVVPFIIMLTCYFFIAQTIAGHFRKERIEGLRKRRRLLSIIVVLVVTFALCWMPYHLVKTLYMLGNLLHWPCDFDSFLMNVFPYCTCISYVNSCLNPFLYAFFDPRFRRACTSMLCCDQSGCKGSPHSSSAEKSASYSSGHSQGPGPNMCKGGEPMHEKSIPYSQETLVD
Kind of series: [35S] GTPγS assay, rat APJ receptor. The series is classed as biochemical. The following applies: rat APJ receptor, read-out: EC50 Rat APJ Receptor. As to the method: The membranes were incubated with modified peptides in the assay buffer. […] Bound [^35S] GTPγS was separated from free radiolabel by filtration. The filter bound radioactivity was determined by liquid scintillation counting.
A general note: GTPγS resists hydrolysis and so accumulates on activated G proteins.

The subject of a further series is Human Mast Cells. The series can be described thus: Mast cell degranulation (histamine release), human mast cells. The series is classed as cell-based. The following applies: human mast cells derived from CD34+ peripheral blood cells; 0.005 to 30 μM, 37° C., 30 min; less than 30% of total histamine content = negative. As to the method: Mast cell degranulation was measured for a number of the modified apelin polypeptides as follows in order to determine the potential immunogenic effect of the peptides. Mast cell degranulating peptide (MCDP) and compound 48/80 were used as positive controls. MCDP was obtained from Alomone Labs (Israel). Compound 48/80 was obtained from Sigma (Saint Louis, […].). Histamine Elisa kit was obtained from NEOGEN (Lexington, Ky.). Tyrode's buffer was obtained from Sigma (#T2397).
Mature human mast cells were derived from CD34+peripheral blood precursor cells after an 8-12 week differentiation/maturation process in vitro. […] Mast cell maturation was confirmed via expression of the mast cell markers c-kit and FcεRI via flow cytometry (>75% positive) and histamine release.
Mast cells (human or rat) were washed in Tyrode's buffer and seeded on 96-well plates (approx. 2000 mast cells/well). A 10 point dilution of test compounds were prepared in Tyrode's buffer and were incubated (0.005 to 30 μM) with mast cells at 37° C. for 30 min. […] A mast cell surfactant control is compared to a mast cell Tyrode's buffer control to ensure surfactants are not inducing histamine release in the absence of the lipidated molecule. Histamine release was quenched by placing the plates on ice for 5 min. Cells were centrifuged at 350×g at 4° C. for 5 min and the supernatant was collected. Released histamine was quantified by ELISA (Neogen Corporation) as per the kits' instruction. Briefly, the absorbance was measured at 650 nm in a microplate reader, following a direct competitive ELISA reaction with test samples compared against a standard curve. Total histamine content of the cells (0.1% Triton X-100) and spontaneous release were also measured to determine the percent of histamine release. Percent histamine release was calculated by the following formula: % histamine release=(ng/ml histamine release by test article−ng/ml spontaneous histamine release in Tyrode's buffer)/(ng/ml total histamine content of cells lysed in 0.1% Triton X-100−ng/ml spontaneous histamine release in Tyrode's buffer)×100.

Series [3] in a line: In vitro stability in rat plasma. In kind it is in vitro ADME. Summed up: as §1
Series [4] is described as follows: In vitro stability in rat liver homogenate. The series is classed as in vitro ADME. Conditions: tissue homogenate. Summed up: as §1
The test system of series [5] is rats with myocardial infarction (MI)-induced heart failure. Kind of series: Hemodynamics in rats with MI-induced heart failure (Millar PV loop). In kind it is in vivo, Lewis rats. The following applies: continuous i.v. infusion, 30 min per dose. As to the method: To assess the cardiovascular effects of modified apelin polypeptides, the polypeptides were administered to rats with myocardial infarction (MI)-induced heart failure. Cardiac function was assessed via the Millar PV loop system.
Male Lewis rats at 2-3 month of age were used for the studies. MI was induced by ligation of the left anterior descending coronary artery (LAD). Echocardiography was performed at 1 week post-MI for animal enrollment. If ejection fraction (EF) was more than 40% and no infarct was identified from echocardiography images, these animals were excluded from the study. A Millar PV loop catheter was inserted into the right common carotid artery and then advanced to the left ventricle (LV) for cardiovascular hemodynamic assessment. The arterial pressure catheter was inserted into a femoral artery for peripheral blood pressure monitoring. Experiments were performed six to seven weeks following induction of MI. The following apelin polypeptides were given intravenously via jugular vein at various doses.
Peptides were continuously infused for 30 min at each dose. At the end of the experiment, the infarct size was verified by gross morphology. FIGS. 6-8 show the results of these experiments. The infarct size (38-39% of LV) was very similar among groups. […] Contractility (dp/dt max), ejection fraction (EF), mean arterial pressure (MAP), and heart rate (HR) changes over baseline are reported at the end of the 30 min infusion period for each polypeptide.

A short description of a further series: liver homogenate. Conditions: rat, 37° C., up to 4 hr.
A short description of a further series: kidney homogenate. Conditions: rat, 37° C., up to 4 hr.

Consider `CSCC[C@H](NC(=O)[C@@H]1CCCN1C(=O)CNC(=O)[C@H](CCCCN)NC(=O)[C@H](Cc1cnc[nH]1)NC(=O)[C@H](CO)NC(=O)[C@H](CC(C)C)NC(=O)[C@H](CCCNC(=N)N)NC(=O)[C@@H]1CCCN1C(=O)[C@H](CCCNC(=N)N)NC(=O)[C@@H]1CCC(=O)N1)C(=O)N1CCC[C@H]1C(=O)N[C@@H](Cc1ccccc1)C(=O)O` [compound 6], for which the “Stability at 4 hours (% Remaining) Kidney” value in series [1] (rat kidney homogenate, 5 μM peptide, 37° C., 4 hr) is recorded as under 1.0 % Remaining. The “induction of histamine release from rat mast cells” value in [2] was “inactive at the highest concentrations tested”.

What is called EC50 is the concentration needed to bring the measured effect to its halfway point. As usually defined, the share remaining is the share of the starting amount still present when the sample was taken. A low value points to more turnover. `CCCC[C@H](NC(=O)[C@@H]1CCCN1C(=O)CNC(=O)[C@H](CCCCN)NC(=O)[C@H](Cc1c[nH]cn1)NC(=O)[C@H](CO)NC(=O)[C@H](CC(C)C)NC(=O)[C@H](CCCNC(=N)N)N(C)C(=O)[C@@H]1CCCN1C(=O)[C@H](CCCNC(=N)N)NC(=O)[C@H](CCC(N)=O)NC(C)=O)C(=O)N1CCC[C@H]1C(=O)N[C@@H](Cc1ccc(Cl)cc1)C(=O)O` [compound 68]: the 50% effective concentration (EC50) on rat APJ receptor came to 0.384 nM. In addition, the “Induce Histamine Release? Human Mast Cells” value in the series on Human Mast Cells is recorded as “No”. The figures for the share remaining at 4 h, 5 μM in [3] and in series [4] were 59.6% and under 1%, respectively.

`CCCC[C@H](NC(=O)[C@@H]1CCCN1C(=O)CNC(=O)[C@H](CCCCN)NC(=O)[C@H](Cc1c[nH]cn1)NC(=O)[C@H](CO)NC(=O)[C@H](CC(C)C)NC(=O)[C@H](CCCNC(=N)N)N(C)C(=O)[C@@H]1CCCN1C(=O)[C@H](CCCNC(=N)N)NC(=O)[C@H](CCC(N)=O)NC(=O)COCCOCCNC(=O)COCCOCCNC(=O)CC[C@H](NC(=O)CCC)C(=O)O)C(=O)N1CCC[C@H]1C(=O)N[C@@H](Cc1ccc(Cl)cc1)C(=O)O` [compound 491]: the “Induce Histamine Release? Human Mast Cells” value in the series with Human Mast Cells is listed as “No”. Further, the fraction remaining at 4 h, 5 μM in series [3] and in series [4] was under 1% each time.

With “109 (QRP[hArg][Cha]SHKG[Oic][Nle]P[Phe(4-Cl)]-OH; not fully specified (N-terminus)) [compound 109]”, the “hemodynamic function (dp/dt max, EF, MAP, HR) in MI rats” value (shortened to “hemodynamic function”) in series [5] is “dose-dependent effects”.

With “{TDA}[AC4Abu][Aeea][Aeea]RQRP[hArg][NMeLeu]SHKG[Oic][pI-Phe]P[D-Bip]{COOH}”, the not cleaved in “liver homogenate” and in “kidney homogenate” was over 90.0 % remaining at 4 hours throughout.

In the case of “{H2} [MerPr] (10K mPEG acetamide) Q R [aMePro] [hArg] [aMeLeu] S H K G P [Nle] P [4-Cl-F] {COOH}”, the not cleaved in “liver homogenate” and in the series “kidney homogenate” was over 90.0 % remaining at 4 hours in each case.

As for “{H2} [MerPr] (10K mPEG acetamide) Q r P [hArg] [aMeLeu] S H K G P [Nle] P [4-Cl-F] {COOH}”, in the series “liver homogenate”, the not cleaved is given as over 90.0 % remaining at 4 hours.

Take `CC(=O)N[C@@H](CCCCNC(=N)N)C(=O)N[C@H](CCCNC(=N)N)C(=O)N[C@@H](CCC(N)=O)C(=O)N[C@@H](CCCCNC(=N)N)C(=O)N1CCC[C@H]1C(=O)N[C@H](CCCNC(=N)N)C(=O)N(C)[C@@H](CC(C)C)C(=O)N[C@@H](CO)C(=O)N[C@@H](Cc1c[nH]cn1)C(=O)N[C@@H](CCCCN)C(=O)NCC(=O)N1[C@H](C(=O)N[C@@H](Cc2ccc(I)cc2)C(=O)N2CCC[C@H]2C(=O)N[C@H](Cc2ccc(-c3ccccc3)cc2)C(=O)O)C[C@@H]2CCCC[C@@H]21` [compound 16] (Ac-[hArg][dR]Q[hArg]P[dR][NMeL]SHKG[Oic][Phe(4-I)]P[dBip]-OH): the “hemodynamic function” value in series [5] was “dose-dependent effects”. The share remaining at 4 h, 5 μM in series [3] stood at 86.1%; in series [4], 40.7%; in series [1] (rat, tissue homogenate) it was 44.5%.

Consider “{H2} [MerPr] (10K mPEG acetamide) Q [NMehArg] P [NMeArg] [aMeLeu] S H K G P [Nle] P [4-Cl-F] {COOH}”, for which, in the series “liver homogenate”, the not cleaved is given as over 90.0 % remaining at 4 hours.

On to `CCCC[C@H](NC(=O)[C@@H]1CCCN1C(=O)CNC(=O)[C@H](CCCCN)NC(=O)[C@H](Cc1c[nH]cn1)NC(=O)[C@H](CO)NC(=O)C(C)(CC(C)C)NC(=O)[C@H](CCCCNC(=N)N)NC(=O)C1(C)CCCN1C(=O)[C@H](CCCNC(=N)N)NC(=O)[C@H](CCC(N)=O)NC(C)=O)C(=O)N1CCC[C@H]1C(=O)N[C@@H](Cc1ccc(Cl)cc1)C(=O)O` (some centres unmarked) [compound 69], for which the “Induce Histamine Release? Human Mast Cells” value in the series on Human Mast Cells is “No”.

Regarding `CSCC[C@H](NC(=O)[C@@H]1CCCN1C(=O)CNC(=O)[C@H](CCCCN)NC(=O)[C@H](Cc1cnc[nH]1)NC(=O)[C@H](CO)NC(=O)[C@H](CC(C)C)NC(=O)[C@H](CCCNC(=N)N)NC(=O)[C@@H]1CCCN1C(=O)[C@H](CCCNC(=N)N)NC(=O)[C@@H]1CCC(=O)N1)C(=O)N1CCC[C@H]1C(=O)N[C@@H](Cc1ccccc1)C(=O)O` [SEQ ID NO: 6, reference compound], the “hemodynamic function” value in series [5] was “dose-dependent effects”. Further, the “Cause Histamine Release?” value in series [2] is recorded as “No”.

Consider `CCCCCCCCCCCCC(=O)N[C@@H](CCC(=O)NCCOCCOCC(=O)NCCOCCOCC(=O)N[C@@H](CCC(N)=O)C(=O)N[C@@H](CCCNC(=N)N)C(=O)N1CCC[C@H]1C(=O)N(C)[C@@H](CCCNC(=N)N)C(=O)N[C@@H](CC(C)C)C(=O)N[C@@H](CO)C(=O)N[C@@H](Cc1c[nH]cn1)C(=O)N[C@@H](CCCCN)C(=O)NCC(=O)N1CCC[C@H]1C(=O)N[C@@H](CCCC)C(=O)N1CCC[C@H]1C(=O)N[C@@H](Cc1ccc(Cl)cc1)C(=O)O)C(=O)O` [compound 287], for which the “Induce Histamine Release? Human Mast Cells” value with Human Mast Cells is listed as “Yes”. The values for the share remaining at 4 h, 5 μM in series [3] and in [4] were 18% and under 1%, respectively.
